Measured values published in US20150352108A1, “AMINO-PYRIMIDINE COMPOUNDS AS INHIBITORS OF TBK1 AND/OR IKK EPSILON” (Alzheimer's Institute of America, priority 2009, published 2015).
pIC50: −log10 of the molar value.

Target: T1, IKKε (Homo sapiens, UniProt Q14164)
T1 construct: His-tag; made in house; host or cells: Sf9 insect cells
T1 sequence (Q14164 1-716): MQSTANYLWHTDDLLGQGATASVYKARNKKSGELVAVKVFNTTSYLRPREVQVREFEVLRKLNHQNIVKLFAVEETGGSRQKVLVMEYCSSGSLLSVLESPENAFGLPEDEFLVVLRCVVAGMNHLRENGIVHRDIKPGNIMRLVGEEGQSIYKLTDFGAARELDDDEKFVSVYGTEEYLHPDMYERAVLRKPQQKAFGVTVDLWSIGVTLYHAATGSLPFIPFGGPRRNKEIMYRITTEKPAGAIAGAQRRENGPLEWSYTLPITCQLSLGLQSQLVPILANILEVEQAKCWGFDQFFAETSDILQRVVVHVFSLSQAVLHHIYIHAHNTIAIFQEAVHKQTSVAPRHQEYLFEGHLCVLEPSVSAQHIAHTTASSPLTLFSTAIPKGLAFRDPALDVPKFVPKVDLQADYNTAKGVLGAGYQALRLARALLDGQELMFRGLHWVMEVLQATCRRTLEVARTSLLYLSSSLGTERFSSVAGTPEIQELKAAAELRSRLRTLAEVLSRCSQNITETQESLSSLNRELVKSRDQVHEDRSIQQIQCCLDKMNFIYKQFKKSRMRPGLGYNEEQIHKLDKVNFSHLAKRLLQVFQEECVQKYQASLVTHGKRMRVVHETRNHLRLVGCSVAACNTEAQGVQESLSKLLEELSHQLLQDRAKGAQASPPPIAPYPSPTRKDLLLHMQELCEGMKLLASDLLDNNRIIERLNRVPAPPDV
Experiment: In-vitro IKKε kinase assay ([γ33]ATP filter-plate)
Assay type: biochemical
Conditions: text bins; read-out: IC50 for inhibition of the kinase activity of IKKε
In short: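 His-tagged Sf9-expressed kinases at 0.1 or 0.02 μg/ml (TBK1) and 0.1 or 0.015 μg/ml (IKKε) for normal and sensitized formats, with myelin basic protein or casein substrate. ATP was at 2×Km (60 μM TBK1, 32 μM IKKε) plus 0.3 μCi [γ33]ATP. Reactions ran 30-45 min, were captured on P-81 filters, and counts were normalized to DMSO.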

Row | Compound | pIC50
1 | COc1cc(NC(=O)c2ccccn2)cc(Nc2nccc(-c3ccc(OC)c(C#N)c3)n2)c1 [compound 365] | 6.30 to 7.30
2 | CN(C)c1cccc(Nc2nccc(-c3cccc(C#N)c3)n2)c1 [compound 379, 3-(2-{[3-(Dimethylamino)phenyl]amino}pyrimidin-4-yl)benzonitrile] | 6.30 to 7.30
3 | COc1cc(Nc2nccc(-c3ccc(OC)c(C#N)c3)n2)cc(C(=O)N2CC[C@@H](O)C2)c1 [compound 382, 5-{2-[(3-{[(3R)-3-Hydroxypyrrolidin-1-yl]carbonyl}-5-methoxyphenyl)amino]pyrimidin-4-yl}-2-methoxybenzonitrile] | 6.30 to 7.30
4 | N#Cc1cccc(-c2ccnc(Nc3ccc(OCC(=O)N4CCOCC4)cc3)n2)c1 [compound 386, 3-[2-({4-[2-(Morpholin-4-yl)-2-oxoethoxy]phenyl}amino)pyrimidin-4-yl]benzonitrile] | 6.30 to 7.30
5 | COc1cc(NC(=O)NC2CCN(C)CC2)cc(Nc2nccc(-c3ccc(OC)c(C#N)c3)n2)c1 [compound 388] | 6.30 to 7.30
6 | COc1cc(NC(=O)NCCCNC(C)=O)cc(Nc2nccc(-c3ccc(OC)c(C#N)c3)n2)c1 [compound 391, N-(3-{[(3-{[4-(3-Cyano-4-methoxyphenyl)pyrimidin-2-yl]amino}-5-methoxyphenyl)carbamoyl]amino}propyl) acetamide] | 6.30 to 7.30
7 | COc1cc(Nc2nccc(-c3ccc(OC4CCNCC4)c(C#N)c3)n2)ccc1S(=O)(=O)NCCCN(C)C [compound 398] | 6.30 to 7.30
8 | CCN(CC)CCN(CC)C(=O)Cc1cccc(Nc2nccc(-c3ccc(NC(=O)C(C)C)c(C#N)c3)n2)c1 [compound 424, N-[2-cyano-4-(2-{[3-(2-{[2-(diethylamino)ethyl] (ethyl)amino}-2-oxoethyl)phenyl]amino}pyrimidin-4-yl)phenyl]-2-methylpropanamide] | 6.30 to 7.30
9 | CC(C)C(=O)Nc1ccc(-c2ccnc(Nc3ccc(OCCCN4CCOCC4)cc3)n2)cc1C#N [compound 430, N-{2-cyano-4-[2-({4-[3-(morpholin-4-yl)propoxy]phenyl}amino)pyrimidin-4-yl]phenyl}-2-methylpropanamide] | 7.30 to 8.30
10 | CC(C)C(=O)Nc1ccc(-c2ccnc(Nc3ccc(OCCN4CCOCC4)cc3)n2)cc1C#N [compound 431, N-{2-cyano-4-[2-({4-[2-(morpholin-4-yl)ethoxy]phenyl}amino)pyrimidin-4-yl]phenyl}-2-methylpropanamide] | 7.30 to 8.30

Continued, values first:

Row | pIC50 | Compound
11 | 7.30 to 8.30 | COc1cc(NC(=O)C2CCCC2)cc(Nc2nccc(-c3ccc(OC)c(C#N)c3)n2)c1 [compound 362, N-(3-{[4-(3-Cyano-4-methoxyphenyl)pyrimidin-2-yl]amino}-5-methoxyphenyl) cyclopentane-carboxamide]
12 | 7.30 to 8.30 | COc1cc(NC(=O)Nc2ccccc2)cc(Nc2nccc(-c3ccc(OC)c(C#N)c3)n2)c1 [compound 364, 1-(3-{[4-(3-Cyano-4-methoxyphenyl)pyrimidin-2-yl]amino}-5-methoxyphenyl)-3-phenylurea]
13 | 7.30 to 8.30 | COc1ccc(-c2ccnc(Nc3ccc(S(=O)(=O)NCCN(C)C)c(OC)c3)n2)cc1C#N [compound 384]
14 | 7.30 to 8.30 | COc1cc(Nc2nccc(-c3ccc(OC4CCNCC4)c(C#N)c3)n2)ccc1S(=O)(=O)NCCCO [compound 399, 4-({4-[3-cyano-4-(piperidin-4-yloxy)phenyl]pyrimidin-2-yl}amino)-N-(3-hydroxypropyl)-2-methoxybenzene-sulfonamide]
15 | 7.30 to 8.30 | CC(C)C(=O)Nc1ccc(-c2ccnc(Nc3ccc(CN4CCN(CCO)CC4)cc3)n2)cc1C#N [compound 426, N-(2-cyano-4-{2-[(4-{[4-(2-hydroxyethyl)piperazin-1-yl]methyl}phenyl)amino]pyrimidin-4-yl}phenyl)-2-methylpropanamide]
16 | 7.30 to 8.30 | CC(C)C(=O)Nc1ccc(-c2ccnc(Nc3cccc(OCCCN4CCOCC4)c3)n2)cc1C#N [compound 429, N-{2-cyano-4-[2-({3-[3-(morpholin-4-yl)propoxy]phenyl}amino)pyrimidin-4-yl]phenyl}-2-methylpropanamide]
